The text below walks through data of patent publication US20040037843A1, “Inducing cellular immune responses to prostate cancer antigens using peptide and nucleic acid compositions” (priority 2003, published 2004).

Some results are limits rather than exact numbers.

What all share (assay): HLA class I binding assay, purified HLA, inhibition of 125I-labelled probe peptide
One test deals with HLA-A*0206 (Homo sapiens, UniProt P04439, D140Y/D185E/D98H/E176V/E277Q/F33Y/G131W/G231S/I119V/I121R/I166T/I218V/L300P/L318F/N151K/N90K/P208A/P217A/Q86G/Q94H/R138H/R169H/T345S). The settings on record: A*[…], A2 supermotif cross-reactive binding data.
Another test deals with HLA-A*6802 (Homo sapiens, UniProt P04439, A269V/D140Y/D185E/E176V/E277Q/E87N/F33Y/G231S/I121R/I166T/I218V/L180W/L300P/L318F/N151K/P208A/P217A/Q86R/R138H/R169H/S129P/T345S/V36M). The settings on record: A2 supermotif cross-reactive binding data; read-out: A*6802 nM.
In the next test the target is HLA-A*0201 (Homo sapiens, UniProt P04439, D140Y/D185E/D98H/E176V/E277Q/G131W/G231S/I119V/I121R/I166T/I218V/L300P/L318F/N151K/N90K/P208A/P217A/Q86G/Q94H/R138H/R169H/T345S). The settings on record: A*[…], A2 supermotif cross-reactive binding data.
The target in the next test is HLA-A*0202 (Homo sapiens, UniProt P04439, D140Y/D185E/D98H/E176V/E277Q/G131W/G231S/I119L/I121R/I166T/I218V/L180W/L300P/L318F/N151K/N90K/P208A/P217A/Q67R/Q86G/Q94H/R138H/R169H/T345S). The settings on record: A2 supermotif cross-reactive binding data.
The next test has as its target HLA-A*0203 (Homo sapiens, UniProt P04439, A173T/D140Y/D185E/D98H/E277Q/G131W/G231S/I119V/I121R/I166T/I218V/L180W/L300P/L318F/N151K/N90K/P208A/P217A/Q86G/Q94H/R138H/R169H/T345S). The following applies: A*[…], A2 supermotif cross-reactive binding data.

In the case of `CSCC[C@H](NC(=O)[C@H](Cc1ccccc1)NC(=O)[C@H](CCC(=O)O)NC(=O)[C@@H](NC(=O)[C@@H](NC(=O)[C@@H](N)CCCCN)C(C)C)[C@@H](C)O)C(=O)N[C@@H](CC(C)C)C(=O)N[C@@H](CS)C(=O)N[C@H](C(=O)O)C(C)C` [Peptide 1418.21], the IC50 on HLA-A*0206 came to 34 nM; on HLA-A*6802, 6670 nM; at HLA-A*0201, 53 nM; on HLA-A*0202, 27 nM; on HLA-A*0203 it was 31 nM.
As for `CC(C)C[C@H](NC(=O)[C@H](CO)NC(=O)[C@H](CC(C)C)NC(=O)[C@H](CO)NC(=O)[C@H](C)NC(=O)[C@H](C)NC(=O)[C@H](CCCNC(=N)N)NC(=O)[C@H](C)NC(=O)[C@H](CC(C)C)NC(=O)[C@@H](N)CC(C)C)C(=O)O` [Peptide 20.0203], the IC50 on HLA-A*0206 came out at 9250 nM; at HLA-A*0201, 500 nM; on HLA-A*0202 it was 5.2 nM; on HLA-A*0203 it was 63 nM.
For the molecule `CC[C@H](C)[C@H](NC(=O)[C@H](Cc1ccccc1)NC(=O)[C@H](C)NC(=O)[C@H](CCCNC(=N)N)NC(=O)[C@H](CCC(=O)O)NC(=O)[C@H](CC(C)C)NC(=O)[C@H](Cc1ccccc1)NC(=O)[C@H](CCSC)NC(=O)[C@H](CC(C)C)NC(=O)[C@@H](N)CCC(N)=O)C(=O)O` [Peptide 1126.16], the IC50 is more than 10000 nM on HLA-A*0206; 30 nM on HLA-A*6802; 98 nM at HLA-A*0201; 36 nM on HLA-A*0202; 91 nM on HLA-A*0203.
The corresponding values for `CSCC[C@H](NC(=O)[C@H](CC(=O)O)NC(=O)[C@H](CC(N)=O)NC(=O)[C@H](CO)NC(=O)[C@H](CC(C)C)NC(=O)[C@H](CC(C)C)NC(=O)[C@@H](N)Cc1c[nH]cn1)C(=O)N[C@@H](CS)C(=O)N[C@@H](C)C(=O)N[C@@H](CCCNC(=N)N)C(=O)N[C@H](C(=O)O)C(C)C` [Peptide 1418.67] are 37 nM, 860 nM, 26 nM, 1.3 nM and 5.3 nM.
With `CC(C)C[C@H](NC(=O)[C@H](CC(=O)O)NC(=O)CNC(=O)[C@H](CCC(=O)O)NC(=O)[C@@H]1CCCN1C(=O)[C@H](CC(C)C)NC(=O)CN)C(=O)N[C@H](C(=O)N[C@@H](Cc1ccc(O)cc1)C(=O)N[C@H](C(=O)O)C(C)C)C(C)C` [Peptide 1389.22], the IC50 is 112 nM at HLA-A*0206, 964 nM on HLA-A*6802, 42 nM at HLA-A*0201 and 2 nM at HLA-A*0202.
Turning to `CC(C)C[C@H](NC(=O)[C@H](C)N)C(=O)N[C@@H](CO)C(=O)N[C@H](C(=O)NCC(=O)N[C@@H](CS)C(=O)N[C@H](C(=O)NCC(=O)N[C@H](C(=O)O)C(C)C)[C@@H](C)O)C(C)C` [Peptide 1418.15], the IC50 was 264 nM on HLA-A*0206; more than 10000 nM on HLA-A*6802; 24 nM on HLA-A*0201; 17 nM on HLA-A*0202; 9.1 nM at HLA-A*0203.
In the same order, the values of H-SLHLLSNDMCV-OH [Peptide 1418.66] are 2310 nM, 2160 nM, 8.6 nM, 0.8 nM and 10 nM.
As for `CC(C)C[C@H](NC(=O)[C@H](Cc1ccccc1)NC(=O)[C@@H](NC(=O)[C@@H](N)C(C)C)C(C)C)C(=O)N[C@H](C(=O)N[C@@H](CC(C)C)C(=O)N[C@@H](CO)C(=O)N[C@H](C(=O)N[C@H](C(=O)N[C@@H](Cc1c[nH]c2ccccc12)C(=O)N[C@H](C(=O)O)C(C)C)[C@@H](C)O)C(C)C)[C@@H](C)O` [Peptide 63.0185], the IC50 at HLA-A*0206 is 336 nM; at HLA-A*6802 it was more than 10000 nM; on HLA-A*0201, 89 nM; at HLA-A*0202 it was 88 nM; at HLA-A*0203, 71 nM.
For the molecule `CC(C)C[C@H](NC(=O)[C@H](CC(C)C)NC(=O)[C@H](Cc1c[nH]cn1)NC(=O)[C@H](CC(C)C)NC(=O)[C@H](CO)NC(=O)[C@@H](NC(=O)[C@H](CS)NC(=O)[C@H](CCC(N)=O)NC(=O)[C@H](CC(C)C)NC(=O)[C@@H](N)CO)C(C)C)C(=O)O` [Peptide 1419.66], the IC50 was determined as 446 nM at HLA-A*0206; 5000 nM on HLA-A*6802; 263 nM at HLA-A*0201; 4.9 nM on HLA-A*0202; 71 nM on HLA-A*0203.
The corresponding values for `CC[C@H](C)[C@H](NC(=O)[C@H](Cc1c[nH]c2ccccc12)NC(=O)[C@@H](NC(=O)[C@@H](NC(=O)[C@H](CO)NC(=O)[C@H](CC(C)C)NC(=O)[C@@H](N)[C@@H](C)O)C(C)C)[C@@H](C)O)C(=O)NCC(=O)N[C@H](C(=O)O)C(C)C` [Peptide 60.0217] are 712 nM, 229 nM, 26 nM, 4.9 nM and 40 nM.
The corresponding values for `CC[C@H](C)[C@H](NC(=O)[C@H](CC(=O)O)NC(=O)[C@H](Cc1ccccc1)NC(=O)[C@@H](NC(=O)[C@H](C)N)[C@@H](C)O)C(=O)N[C@@H](CCC(=O)O)C(=O)N[C@@H](CO)C(=O)N[C@@H](CCCCN)C(=O)N[C@H](C(=O)O)C(C)C` [Peptide 1418.30] are 82 nM, 258 nM, 238 nM, 27 nM and 44 nM.
In the case of `CC[C@H](C)[C@H](NC(=O)[C@H](Cc1c[nH]c2ccccc12)NC(=O)[C@@H](NC(=O)[C@@H](NC(=O)[C@H](CO)NC(=O)[C@H](CC(C)C)NC(=O)[C@@H](NC(=O)[C@H](CC(C)C)NC(=O)[C@H](Cc1ccccc1)NC(=O)[C@@H](NC(=O)[C@@H](N)C(C)C)C(C)C)[C@@H](C)O)C(C)C)[C@@H](C)O)C(=O)O` [Peptide 1419.25], the IC50 at HLA-A*0206 was 2850 nM; on HLA-A*6802, more than 10000 nM; at HLA-A*0202, 159 nM; on HLA-A*0203, 63 nM.
Turning to H-LLSNDMCARV-OH [Peptide 1418.53], the IC50 on HLA-A*0206 amounted to 10 nM; on HLA-A*6802 it was 1700 nM; at HLA-A*0201 it was 5.3 nM; on HLA-A*0202, 0.7 nM.
For the molecule `CC(C)C[C@H](NC(=O)[C@H](CO)NC(=O)[C@H](CC(C)C)NC(=O)[C@H](CO)NC(=O)[C@H](C)NC(=O)[C@H](C)NC(=O)[C@H](CCCNC(=N)N)NC(=O)[C@H](C)NC(=O)[C@H](CC(C)C)NC(=O)[C@H](CC(C)C)NC(=O)[C@@H](N)CC(C)C)C(=O)O` [Peptide 63.0136], the IC50 on HLA-A*0206 came to 80 nM; at HLA-A*0201 it was 8.1 nM; at HLA-A*0202 it was 3.1 nM; on HLA-A*0203, 5.3 nM.
Take `CC(C)C[C@H](NC(=O)[C@H](CO)NC(=O)[C@H](C)NC(=O)[C@H](C)NC(=O)[C@H](CCCNC(=N)N)NC(=O)[C@H](C)NC(=O)[C@H](CC(C)C)NC(=O)[C@@H](N)CC(C)C)C(=O)N[C@@H](CO)C(=O)N[C@H](C(=O)O)C(C)C` [Peptide 63.0031]: the IC50 at HLA-A*0206 was 378 nM; on HLA-A*0201, 109 nM; on HLA-A*0202, 10 nM; at HLA-A*0203, 21 nM.
Turning to `CC(C)C[C@H](NC(=O)[C@@H](N)Cc1ccccc1)C(=O)N[C@@H](CC(N)=O)C(=O)N[C@@H](CCC(=O)O)C(=O)N[C@@H](CO)C(=O)N[C@@H](Cc1ccc(O)cc1)C(=O)N[C@@H](CCCCN)C(=O)N[C@@H](Cc1c[nH]cn1)C(=O)N[C@@H](CCC(=O)O)C(=O)N[C@@H](CCC(N)=O)C(=O)N[C@H](C(=O)O)C(C)C` [Peptide 1419.55], the IC50 on HLA-A*0206 came to 381 nM; at HLA-A*6802, 6150 nM; on HLA-A*0202 it was 1.4 nM; on HLA-A*0203 it was 5.6 nM.
With `CC[C@H](C)[C@H](NC(=O)[C@@H]1CCCN1C(=O)[C@H](CCC(N)=O)NC(=O)[C@H](Cc1c[nH]c2ccccc12)NC(=O)[C@H](CC(C)C)NC(=O)[C@H](CC(C)C)NC(=O)[C@H](CC(C)C)NC(=O)[C@@H]1CCCN1)C(=O)N1CCC[C@H]1C(=O)N[C@H](C(=O)O)C(C)C` [Peptide 63.0042], the IC50 was 336 nM on HLA-A*0206, 238 nM at HLA-A*0201, 47 nM at HLA-A*0202 and 19 nM at HLA-A*0203.
Regarding `CC[C@H](C)[C@H](NC(=O)[C@H](CO)NC(=O)[C@@H](NC(=O)CN)C(C)C)C(=O)N[C@@H](Cc1c[nH]c2ccccc12)C(=O)N[C@@H](CC(N)=O)C(=O)N1CCC[C@H]1C(=O)N[C@H](C(=O)N[C@@H](CC(C)C)C(=O)N[C@H](C(=O)O)C(C)C)[C@@H](C)CC` [Peptide 63.0041], the IC50 on HLA-A*0206 was 451 nM; on HLA-A*6802, 2290 nM; at HLA-A*0201, 250 nM; on HLA-A*0202, 94 nM.
For the molecule `CC(C)C[C@H](NC(=O)[C@H](CCC(=O)O)NC(=O)[C@H](CCCNC(=N)N)NC(=O)[C@H](CC(C)C)NC(=O)[C@@H](N)CCCCN)C(=O)N[C@@H](CO)C(=O)N[C@@H](CCC(=O)O)C(=O)N[C@@H](CC(C)C)C(=O)N[C@@H](CO)C(=O)N[C@H](C(=O)O)C(C)C` [Peptide 63.0048], the IC50 was 1820 nM at HLA-A*6802, 263 nM at HLA-A*0201, 9.1 nM on HLA-A*0202 and 7.1 nM at HLA-A*0203.
